Assay results as given in patent US20120289563A1, “COMBINATIONS OF IMIDAFENACIN AND SALIVARY STIMULANTS FOR THE TREATMENT OF OVERACTIVE BLADDER” (THERAVIDA, INC., priority 2011, published 2012).

Key:
[1] = Pilot human study of saliva flow rate (Parafilm chewed for 2 minutes, saliva weighed); assay type: in vivo; conditions: 0.1 mg Uritos; single subject
Method: In this study, the effect of imidafenacin (Uritos®), pilocarpine, the combination of the two, and placebo was measured in separate, yet identical, studies in a single individual.
The following protocol was for a pilot human study to evaluate the extent of saliva flow rate following the administration of 0.1 mg Uritos® tablet and 5 or 10 mg pilocarpine HCl tablet after about 0.5 or 3 hrs from imidafenacin administration. The subject was a healthy, person. The subject performed the following: • 1. Fast the night before. • 2. No coffee or soda 8 hrs prior to taking the first dose. • 3. Record time voiding and measure urine if possible. • 4. Record extent of dryness of the mouth (Very dry, dry, and not dry). • 5. Record any adverse event. • 6. Chew a 1″×1″ piece of Parafilm (American National Can (Neenah, Wis. 54956) Bar code No. 7-466676999) over 2 minutes. • 7. Collect wetted Parafilm and saliva into a tared container (pre-weighed container). • 8. Measure the amount of saliva collected. • 9. Plot Saliva collected per 2 min time intervals against time.
The subject fasted overnight, but had 240 mL of water 1 hr prior to dose. The water continued ad lib until 1 hr pre and 1 hr post dose, other than 120 mL with Uritos® and 120 mL with 5 mg Salagen tablet. For lunch, the subject consumed a light sandwich. No coffee, soda, or caffeinated or alcoholic beverages was consumed. […]

[2] = 5 mg of pilocarpine; cited from earlier work

Time of maximum dry mouth / maximum saliva depression point after administration [1] | Structure (SMILES) | Time of maximum saliva output after administration [2]
about 5 hours | Cc1nccn1CCC(C(N)=O)(c1ccccc1)c1ccccc1 [imidafenacin, 4-(2-methyl-1H-imidazol-1-yl)-2,2-diphenylbutanamide] | 
 | CC[C@@H]1C(=O)OC[C@@H]1Cc1cncn1C [pilocarpine] | about 30 minutes
